Assays:
[1] = biological target: T1, Peroxisome proliferator-activated receptor alpha (Homo sapiens) (UniProt Q07869); assay: Agonist activity at human PPARalpha by transactivation assay relative to WY-14643; assay type: functional
T1 sequence (whole entry): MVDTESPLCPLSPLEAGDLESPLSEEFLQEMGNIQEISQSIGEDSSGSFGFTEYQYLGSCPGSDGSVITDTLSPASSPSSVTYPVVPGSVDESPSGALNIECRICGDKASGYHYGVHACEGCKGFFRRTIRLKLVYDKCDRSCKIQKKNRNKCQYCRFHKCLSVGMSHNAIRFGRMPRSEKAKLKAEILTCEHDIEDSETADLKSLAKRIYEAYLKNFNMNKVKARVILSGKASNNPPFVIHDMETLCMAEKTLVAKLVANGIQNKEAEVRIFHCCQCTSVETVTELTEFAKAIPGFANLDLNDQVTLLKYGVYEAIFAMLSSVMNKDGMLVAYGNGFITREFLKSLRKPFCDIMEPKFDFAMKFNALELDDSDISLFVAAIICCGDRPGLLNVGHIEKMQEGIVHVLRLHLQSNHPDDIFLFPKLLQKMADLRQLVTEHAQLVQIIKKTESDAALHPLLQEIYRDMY

[2] = biological target: T2, Peroxisome proliferator-activated receptor delta (Homo sapiens, UniProt Q03181); assay: Agonist activity at human PPARdelta by transactivation assay; assay type: functional
T2 sequence (Q03181 whole entry): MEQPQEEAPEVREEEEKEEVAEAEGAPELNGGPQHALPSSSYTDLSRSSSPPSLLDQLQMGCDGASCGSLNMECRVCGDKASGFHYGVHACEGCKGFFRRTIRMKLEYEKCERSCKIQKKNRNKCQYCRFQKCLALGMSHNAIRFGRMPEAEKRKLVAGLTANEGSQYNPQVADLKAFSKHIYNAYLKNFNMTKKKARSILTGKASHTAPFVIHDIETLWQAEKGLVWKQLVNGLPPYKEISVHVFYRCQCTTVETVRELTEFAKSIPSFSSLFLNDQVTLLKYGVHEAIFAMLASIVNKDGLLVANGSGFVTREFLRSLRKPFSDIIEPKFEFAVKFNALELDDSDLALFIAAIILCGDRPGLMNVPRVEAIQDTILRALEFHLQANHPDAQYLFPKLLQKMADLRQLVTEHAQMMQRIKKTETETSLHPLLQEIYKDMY

[3] = biological target: T3, Peroxisome proliferator-activated receptor alpha (Homo sapiens, UniProt Q07869); assay: Agonist activity at human PPARalpha by transactivation assay; assay type: functional
T3 sequence (Q07869 whole entry): T1 sequence (whole entry)

[4] = Cmax in rat at 2.5 mg/kg, po; assay type: ADME, organism-based; design: dose 2.5 mg/kg, route oral; settings: in vivo
[5] = biological target: T4, Peroxisome proliferator-activated receptor gamma (Homo sapiens, UniProt P37231)
T4 sequence (P37231 whole entry): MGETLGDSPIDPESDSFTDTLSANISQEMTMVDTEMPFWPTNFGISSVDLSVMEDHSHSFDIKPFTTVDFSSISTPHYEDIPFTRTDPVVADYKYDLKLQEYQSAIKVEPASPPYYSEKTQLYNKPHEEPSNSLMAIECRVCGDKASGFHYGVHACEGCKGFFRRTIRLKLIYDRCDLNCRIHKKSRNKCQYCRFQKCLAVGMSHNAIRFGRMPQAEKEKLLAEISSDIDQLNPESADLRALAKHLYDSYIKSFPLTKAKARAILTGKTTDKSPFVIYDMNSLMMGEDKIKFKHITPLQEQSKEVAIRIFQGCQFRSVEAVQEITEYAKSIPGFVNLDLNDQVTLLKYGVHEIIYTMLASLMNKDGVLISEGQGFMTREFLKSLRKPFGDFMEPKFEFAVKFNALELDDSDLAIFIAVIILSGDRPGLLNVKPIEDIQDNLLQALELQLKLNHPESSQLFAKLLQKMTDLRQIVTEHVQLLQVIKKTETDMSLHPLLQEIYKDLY
Description: Agonist activity at human PPARgamma by transactivation assay

[6] = Half life in rat at 2.5 mg/kg, po; assay type: ADME, organism-based; design: dose 2.5 mg/kg, route oral; settings: in vivo
[7] = Oral bioavailability in rat at 2.5 mg/kg; assay type: ADME, organism-based; settings: in vivo

Row | Structure (SMILES) | Activity [1] | EC50 [2] | EC50 [3] | Cmax [4] | EC50 [5] | half-life [6] | bioavailability [7]
1 | CCO[C@@H](Cc1ccc(OC/C=C/c2cc(OC)cc(OC)c2)cc1)C(=O)O | 186% | 13 µM |  |  |  |  | 
2 | CCO[C@@H](Cc1ccc(OC/C=C/c2cc(OC(C)C)cc(OC(C)C)c2)cc1)C(=O)O | 207% | 6 µM | 4 nM | 1840 ng/mL | 80 nM | 145 min | 95%
3 | CCO[C@@H](Cc1ccc(OC/C=C/c2ccccc2)cc1)C(=O)O | 169% | 18 µM | 1600 nM |  | 8000 nM |  | 
4 | CCO[C@@H](Cc1ccc(OC/C=C/c2cc(CCc3ccccc3)cc(CCc3ccccc3)c2)cc1)C(=O)O | 118% |  | 30 nM |  | 5100 nM |  | 
5 | CCO[C@@H](Cc1ccc(OC/C=C/c2cc(OC3CCCC3)cc(OC3CCCC3)c2)cc1)C(=O)O | 135% | 15 µM | 20 nM |  | 300 nM |  | 
6 | CCO[C@@H](Cc1ccc(OC/C=C/c2cc(OCC(F)(F)F)cc(OCC(F)(F)F)c2)cc1)C(=O)O | 149% | 4 µM | 2 nM |  | 800 nM |  | 
7 | CCO[C@@H](Cc1ccc(OC/C=C/c2cc(C#Cc3ccccc3)cc(C#Cc3ccccc3)c2)cc1)C(=O)O | 108% |  | 500 nM |  | 3100 nM |  | 
8 | CCO[C@@H](Cc1ccc(OC/C=C/c2cc(Br)cc(Br)c2)cc1)C(=O)O | 121% | 20 µM | 300 nM |  | 4100 nM |  | 
9 | CCO[C@@H](Cc1ccc(OC/C=C/c2cc(C(F)(F)F)cc(C(F)(F)F)c2)cc1)C(=O)O | 195% | 1.4 µM | 20 nM |  | 400 nM |  | 
10 | CCO[C@@H](Cc1ccc(OC/C=C/c2cc(OC(=O)c3ccccc3)cc(OC(=O)c3ccccc3)c2)cc1)C(=O)O | 121% |  | 50 nM |  | 190 nM |  | 
11 | CCOc1cc(/C=C/COc2ccc(C[C@H](OCC)C(=O)O)cc2)cc(OCC)c1 | 197% | 7.9 µM | 20 nM | 6160 ng/mL | 200 nM | 130 min | 86%
12 | CCO[C@@H](Cc1ccc(OC/C=C/c2cc(-c3ccccc3)cc(-c3ccccc3)c2)cc1)C(=O)O | 30% | 4 µM | 20 nM |  | 200 nM |  | 
13 | CCO[C@@H](Cc1ccc(OC/C=C/c2cc(/C=C/c3ccccc3)cc(/C=C/c3ccccc3)c2)cc1)C(=O)O | 66% |  | 90 nM |  | 3000 nM |  | 
14 | CCO[C@@H](Cc1ccc(OC/C=C/c2cc(-c3ccc(C(C)(C)C)cc3)cc(-c3ccc(C(C)(C)C)cc3)c2)cc1)C(=O)O | 110% |  | 14000 nM |  | 1000 nM |  | 
15 | CCO[C@@H](Cc1ccc(OC/C=C(\C)c2ccc(-c3ccccc3)cc2)cc1)C(=O)O | 158% |  | 500 nM |  |  |  | 

Reference: ChEMBL document CHEMBL1139897, “Design of potent PPARalpha agonists” (Bioorg Med Chem Lett, 2007)
